The text below walks through data of article PMC3162038 (Journal of the American Chemical Society, 2011).

Holding throughout (assay type): biochemical
For one assay, the target named is T1, VldB (Streptomyces hygroscopicus, UniProt Q15JG4).
T1 sequence (Q15JG4 1-373): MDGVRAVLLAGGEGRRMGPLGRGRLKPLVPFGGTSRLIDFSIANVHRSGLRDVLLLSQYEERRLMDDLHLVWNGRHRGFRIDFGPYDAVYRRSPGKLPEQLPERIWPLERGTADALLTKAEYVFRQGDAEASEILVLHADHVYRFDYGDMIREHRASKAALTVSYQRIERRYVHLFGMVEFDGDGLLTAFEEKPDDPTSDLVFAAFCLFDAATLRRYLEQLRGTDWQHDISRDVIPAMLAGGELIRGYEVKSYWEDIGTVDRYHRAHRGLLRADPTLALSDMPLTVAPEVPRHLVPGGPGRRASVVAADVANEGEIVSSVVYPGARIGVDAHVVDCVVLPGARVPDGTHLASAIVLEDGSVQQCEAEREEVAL
The experiment in a line: HPLC and ESI-MS of product. The settings on record: valienol 1-phosphate as co-substrate; 1 mM Mg2+.

The next assay concerns the target T2, VldH (Streptomyces hygroscopicus, UniProt Q15JF8).
T2 sequence (Q15JF8 1-213): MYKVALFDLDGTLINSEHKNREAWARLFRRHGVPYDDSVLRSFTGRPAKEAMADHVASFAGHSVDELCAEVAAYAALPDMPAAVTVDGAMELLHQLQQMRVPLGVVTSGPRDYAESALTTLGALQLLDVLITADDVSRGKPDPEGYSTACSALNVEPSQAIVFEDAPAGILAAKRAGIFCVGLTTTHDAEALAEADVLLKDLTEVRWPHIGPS
In words: ESI-MS of product. The settings on record: 5 mM substrate, 10 mM MgCl2, 50 mM Tris-HCl pH 7.5, 1.5 h.

Another assay has as its target T3, OtsA (Escherichia coli, UniProt P31677).
T3 sequence (P31677 1-474): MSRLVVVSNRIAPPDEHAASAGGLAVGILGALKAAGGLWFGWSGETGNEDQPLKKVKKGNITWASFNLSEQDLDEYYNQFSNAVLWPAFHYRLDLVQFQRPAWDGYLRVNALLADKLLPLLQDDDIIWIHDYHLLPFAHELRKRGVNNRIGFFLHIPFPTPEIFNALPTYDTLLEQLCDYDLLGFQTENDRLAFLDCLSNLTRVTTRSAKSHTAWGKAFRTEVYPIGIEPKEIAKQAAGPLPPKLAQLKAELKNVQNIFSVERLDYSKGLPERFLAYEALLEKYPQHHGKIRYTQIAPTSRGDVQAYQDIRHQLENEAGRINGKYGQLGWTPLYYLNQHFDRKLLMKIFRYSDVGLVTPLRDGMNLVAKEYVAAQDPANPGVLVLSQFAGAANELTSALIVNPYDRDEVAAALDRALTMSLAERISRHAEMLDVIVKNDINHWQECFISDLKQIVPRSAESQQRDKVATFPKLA
The experiment in a line: ESI-MS of product. The settings on record: UDP-glucose and glucose 6-phosphate as substrates; 5 mM MgCl2, 50 mM Tris-HCl pH 7.5.

With `Nc1nc2c(ncn2[C@@H]2O[C@H](COP(=O)(O)OP(=O)(O)OP(=O)(O)O)[C@@H](O)[C@H]2O)c(=O)[nH]1` [GTP], on VldB, the “HPLC and ESI-MS of product” value is listed as “effectively catalyzes the conversion of valienol 1-phosphate to GDP-valienol”.

Consider `O=P(O)(O)OC[C@H]1O[C@H](O[C@H]2O[C@H](CO)[C@@H](O)[C@H](O)[C@H]2O)[C@H](O)[C@@H](O)[C@@H]1O` [trehalose 6-phosphate], for which the ESI-MS of product result at VldH was “VldH was able to catalyze dephosphorylation of trehalose 6-phosphate to give trehalose”; at OtsA, “the recombinant OtsA can catalyze the formation of trehalose 6-phosphate”.
